Where two headings read alike, the source gives them in different places. Peptide text beside a SMILES is read from it. * marks the point of attachment. βNA = c1ccc2cc(N*)ccc2c1
Legend:
Enterobacter IR strains = assay: Ertapenem E-test MIC, impermeability-resistant (IR) Enterobacter strains; type: cell-based, Enterobacter aerogenes, Enterobacter cloacae; conditions: for number of strains: >2 MIC steps impact on ertapenem MIC / number of strains: No impact on ertapenem MIC: Enterobacter IR strains, Mueller Hinton, cloxacillin 200 mg/l and/or PAbetaN 25 mg/l, vs medium without either; for MIC with ertapenem: E. aerogenes strain 9306074
Method: (§1) The effect of cloxacillin and PAbetaN on the MICs of the strains with ertapenem was evaluated firstly using E-test® strips in Mueller Hinton medium. […] The second test consisted in evaluating the impact of these 2 compounds on the MICs with ertapenem of 29 carbapenemases-producing strains (+1 ESBL).
(§2) Test B100904: the 19 impermeability-resistant (IR) strains belong to the following species: 10 Enterobacter aerogenes, 2 Enterobacter cloacae, 1 Citrobacter freundii, 1 Pseudomonas aeruginosa, 3 Proteus mirabilis and 2 Morganella morganii.
(§3) The E-tests were performed in Mueller-Hinton medium supplemented or not supplemented with cloxacillin and/or PAbetaN according to Table I:
(§4) 2. Test • Production for each strain of an approximately 0.5 McF suspension in a 0.85% NaCl ampule. • Seeding of the 4 media by semi-automatic swabbing. • Drying of the dishes at ambient temperature for 5 to 15 min. • Application of the ertapenem E-test® strip. • Incubation for 16 to 20 hours at 37° C.

[1] = tested on: carbapenemase-producing strains; type: cell-based
Method: as §1
(§5) Test B101001: twenty-nine carbapenemase-producing strains divided as follows: 27 Klebsiella pneumoniae strains producing class A KPC carbapenemase (KPC), and 2 strains respectively of Klebsiella pneumoniae and Citrobacter freundii which produce class-B carbapenemase (NDM-1). This test also comprised an ESBL Escherichia coli strain.
as §3, §4

[2] = tested on: 19 impermeability-resistant (IR) strains; assay: Ertapenem E-test MIC, all 19 IR strains (TOTAL); type: cell-based; conditions: for number of strains: >2 MIC steps impact on ertapenem MIC / number of strains: No impact on ertapenem MIC / number of strains: ≦2 MIC steps impact on ertapenem MIC: TOTAL of 19 IR strains, cloxacillin 200 mg/l and/or PAbetaN 25 mg/l, vs medium without either
Method: as §1, §2, §3, §4

19 IR strains = assay: Agar dilution growth on chromogenic media with faropenem, IR strains; type: cell-based; conditions: for additional IR strains inhibited: faropenem 16 mg/L
Method: (§6) Seventy-seven strains of Gram-negative bacteria, of which 71 are enterobacteria and 6 non-enterobacteria (non-fermenting bacteria), whose resistance characteristics are set out in Table IV, were tested on media containing different concentrations of faropenem and cloxacillin, with or without PAbetaN, in order to establish the sensitivity and the specificity of each formulation. The tested media are described in Table V.
(§7) The chromogenic media are divided into 120×120 square dishes.
(§8) The seeding is performed from 24-h pre-cultures at 37° C. on trypcase soy agar. For each strain, a 0.5 McF suspension in physiological water is produced. Each suspension is spot-seeded (1 to 2 μL) on each medium with the aid of a multi-point inoculator according to the Agar Dilution (AD) method. Readings are performed after 24 hours of incubation at 37° C.
(§9) An absence of bacterial growth or a number of colonies which is less than or equal to 3 are considered as corresponding to a growth inhibition. The presence of 4 colonies or more is considered to be positive growth.

Morganella IR strains = assay: Ertapenem E-test MIC, IR Morganella strains; type: cell-based, Morganella morganii; conditions: cloxacillin 200 mg/l and/or PAbetaN 25 mg/l, vs medium without either
Method: as §1, §2, §3, §4

[3] = tested on: ESBL Escherichia coli strain; assay: Ertapenem E-test MIC, ESBL strain; type: cell-based; conditions: cloxacillin 200 mg/l and/or PAbetaN 25 mg/l, vs medium without either
Method: as §1, §5, §3, §4

[4] = tested on: class A KPC carbapenemase producing strains; assay: Ertapenem E-test MIC, KPC strains; type: cell-based, Klebsiella pneumoniae
Method: as §1, §5, §3, §4

[5] = tested on: class-B carbapenemase (NDM-1) producing strains; assay: Ertapenem E-test MIC, NDM-1 strains; type: cell-based, Klebsiella pneumoniae, Citrobacter freundii; conditions: cloxacillin 200 mg/l and/or PAbetaN 25 mg/l, vs medium without either
Method: as §1, §5, §3, §4

Citrobacter IR strain = assay: Ertapenem E-test MIC, IR Citrobacter strain; type: cell-based, Citrobacter freundii; conditions: cloxacillin 200 mg/l and/or PAbetaN 25 mg/l, vs medium without either
Method: as §1, §2, §3, §4

Proteus IR strains = assay: Ertapenem E-test MIC, IR Proteus strains; type: cell-based, Proteus mirabilis; conditions: cloxacillin 200 mg/l and/or PAbetaN 25 mg/l, vs medium without either
Method: as §1, §2, §3, §4

Pseudomonas IR strain = assay: Ertapenem E-test MIC, IR Pseudomonas strain; type: cell-based, Pseudomonas aeruginosa
Method: as §1, §2, §3, §4

[6] = tested on: carbapenemase-producing strains; assay: Agar dilution growth on chromogenic media with faropenem, carbapenemase-producing strains; type: cell-based
Method: as §6, §7, §8, §9

[7] = TOTAL (ESBL+NDM+KPC), cloxacillin 200 mg/l and/or PAbetaN 25 mg/l, vs medium without either
[8] = Pseudomonas IR strain, cloxacillin 200 mg/l and/or PAbetaN 25 mg/l, vs medium without either
[9] = PAbetaN alone in Mueller Hinton
[10] = PAbetaN added to cloxacillin, against MICs with cloxacillin, 17 strains already decreased >2 steps by cloxacillin
[11] = KPC strains, cloxacillin 200 mg/l and/or PAbetaN 25 mg/l, vs medium without either

Question: What does the source list for Cc1onc(-c2ccccc2Cl)c1C(=O)N[C@@H]1C(=O)N2[C@@H]1SC(C)(C)[C@@H]2C(=O)O [CLX, cloxacillin]?
Answer: MIC with ertapenem in medium with the named additive (Enterobacter IR strains; E. cloacae IR strain unimpacted by cloxacillin alone): > 32 µg/mL; number of strains: >2 MIC steps impact on ertapenem MIC (Enterobacter IR strains): 11; number of strains: No impact on ertapenem MIC (Enterobacter IR strains): 1; number of strains: >2 MIC steps, positive MIC effect [1, 7]: 2; number of strains: No impact on ertapenem MIC [1, 7]: 10; number of strains: ≦2 MIC steps, negative MIC effect [1, 7]: 16; number of strains: >2 MIC steps, negative MIC effect ([1]; TOTAL (ESBL+NDM+KPC), cloxacillin 200 mg/l, vs medium without): 1; number of carbapenemase-producing strains (NDM or KPC) with no impact on MIC with ertapenem ([1]; cloxacillin): 9; number of carbapenemase-producing strains with MIC slightly reduced ([1]; cloxacillin): 16; number of strains: >2 MIC steps impact on ertapenem MIC [2]: 17; number of strains: No impact on ertapenem MIC [2]: 1; number of strains: ≦2 MIC steps impact on ertapenem MIC [2]: 1; IR strains whose MICs with ertapenem are reduced by more than 2 concentration steps ([2]; cloxacillin added to Mueller Hinton medium): 16/19; additional IR strains inhibited (19 IR strains; addition of 50 mg/L cloxacillin): 6; additional IR strains inhibited (19 IR strains; addition of 200 mg/L cloxacillin): 9; number of strains: >2 MIC steps impact on ertapenem MIC (Morganella IR strains): 2; number of strains: No impact on ertapenem MIC [3]: 1; number of strains: >2 MIC steps, positive MIC effect [4]: 2; number of strains: No impact on ertapenem MIC [4]: 7; number of strains: ≦2 MIC steps, negative MIC effect [4]: 16; number of strains: >2 MIC steps, negative MIC effect ([4]; 200 ug/mL): 1; number of strains: No impact on ertapenem MIC [5]: 2; number of strains: >2 MIC steps impact on ertapenem MIC (Citrobacter IR strain): 1; number of strains: >2 MIC steps impact on ertapenem MIC (Proteus IR strains): 3; number of strains: ≦2 MIC steps impact on ertapenem MIC (Pseudomonas IR strain; [8]): 1; impact on growth of carbapenemase-producing strains ([6]; cloxacillin alone, at the 3 concentrations of faropenem tested): little or no impact

Question: How did the MIC with ertapenem (Enterobacter IR strains; without PAbetaN) turn out when C[C@@H](O)[C@H]1C(=O)N2C(C(=O)O)=C(S[C@@H]3CN[C@H](C(=O)Nc4cccc(C(=O)O)c4)C3)[C@H](C)[C@H]12 [ertapenem] was run?
Answer: 6 µg/mL

Question: C[C@@H](O)[C@H]1C(=O)N2C(C(=O)O)=C([C@H]3CCCO3)S[C@H]12 [Faropenem, faropenem] was tested. Which “impact on growth of IR strains” value (19 IR strains; faropenem alone, up to 16 mg/L) did it give?
Answer: little impact

Question: How did the MIC with ertapenem (Enterobacter IR strains; in the presence of PAbetaN alone) turn out when NC(N)=NCCC[C@H](NC(=O)[C@@H](N)Cc1ccccc1)C(=O)Nc1ccc2ccccc2c1 [PAbetaN, phenylalanine-arginine-beta-naphthylamide] (H-Phe-Arg-βNA) was run?
Answer: > 32 µg/mL

Question: And the “number of strains: >2 MIC steps impact on ertapenem MIC” value (Enterobacter IR strains)?
Answer: 2

Question: And the “number of strains: No impact on ertapenem MIC” value (“number of strains: No impact” below) (Enterobacter IR strains)?
Answer: 10

Question: And the “number of strains with MIC with ertapenem slightly increased” value [1, 9]?
Answer: 15

Question: What about the “number of strains with MIC with ertapenem very distinctly increased” value [1, 9] of the same molecule?
Answer: 7

Question: What about the “number of strains: >2 MIC steps, positive MIC effect” value [1, 7] of the same molecule?
Answer: 7

Question: And the “number of strains: No impact” value [1, 7]?
Answer: 5

Question: What about the “number of strains: ≦2 MIC steps, negative MIC effect” value [1, 7] of the same molecule?
Answer: 2

Question: What about the “number of strains: ≦2 MIC steps, positive MIC effect” value [1, 7] of the same molecule?
Answer: 15

Question: What about the “number of IR strains unimpacted” value [2, 10] of the same molecule?
Answer: 1

Question: What about the “number of IR strains with MICs decreased by two additional MIC steps” value [2, 10] of the same molecule?
Answer: 7

Question: And the “number of IR strains with less significantly decreased MICs (≦2 MIC steps)” value [2, 10]?
Answer: 5

Question: And the “impact of PAbetaN alone on ertapenem MICs of the majority of the IR strains” value ([2]; PAbetaN alone)?
Answer: no impact

Question: And the “number of strains: >2 MIC steps impact on ertapenem MIC” value [2]?
Answer: 2

Question: What about the “number of strains: No impact” value [2] of the same molecule?
Answer: 17

Question: What about the “number of strains: ≦2 MIC steps impact on ertapenem MIC” value [2] of the same molecule?
Answer: 0

Question: And the “number of strains: No impact” value (Morganella IR strains)?
Answer: 2

Question: What about the “number of strains: ≦2 MIC steps, positive MIC effect” value [3] of the same molecule?
Answer: 1

Question: What about the “number of strains: >2 MIC steps, positive MIC effect” value [4, 11] of the same molecule?
Answer: 7

Question: What about the “number of strains: No impact” value [4, 11] of the same molecule?
Answer: 3

Question: What about the “number of strains: ≦2 MIC steps, negative MIC effect” value [4, 11] of the same molecule?
Answer: 2

Question: What about the “number of strains: ≦2 MIC steps, positive MIC effect” value [4, 11] of the same molecule?
Answer: 14

Question: And the “number of strains: No impact” value [5]?
Answer: 2

Question: What about the “number of strains: No impact” value (Citrobacter IR strain) of the same molecule?
Answer: 1

Question: And the “number of strains: No impact” value (Proteus IR strains)?
Answer: 3

Question: What about the “effect on ertapenem MIC of adding PAbetaN in addition to cloxacillin” value (Pseudomonas IR strain; P. aeruginosa IR strain) of the same molecule?
Answer: not affected

Question: What about the “number of strains: No impact” value (Pseudomonas IR strain; [8]) of the same molecule?
Answer: 1

Question: And the “detection sensitivity with vs without PAbetaN” value ([6]; 200 mg/L cloxacillin and 8 or 16 mg/L faropenem)?
Answer: does not change

Question: And the “detection sensitivity with vs without PAbetaN” value ([6]; 8 or 16 mg/L faropenem with 50 or 100 mg/L cloxacillin)?
Answer: greater
